How the values were obtained:
Assay type in all cases: in vivo, mouse
[1] = system: Aβ1-42 plaques and intracellular Aβ1-42; assay: Plaque and intracellular Aβ1-42 staining, lentiviral Aβ1-42 wild type mice
Protocol: (§1) Immunohistochemistry was performed on 20 micron-thick 4% paraformaldehyde (PFA) fixed cortical brain sections. Aβ1-42 was probed (1:200) with rabbit polyclonal specific anti-Aβ1-42 antibody (Zymed) that recognizes a.a.1-42, and (1:200) mouse monoclonal antibody (4G8) that recognizes amino acid 17-24 (Covance) and counterstained with DAPI. Parkin was immunoprobed (1:200) with mouse anti-parkin (PRK8) antibody that recognizes amino acid 399-465 (Signet Labs, Dedham, Mass.) and rabbit polyclonal (1:200) anti-parkin (AB5112) antibody that recognizes amino acid 305-622 (Millipore) and counterstained with DAPI. Mouse monoclonal (6E10) antibody (1:100) with DAB were used (Covance) and thioflavin-S was performed according to manufacturer's instructions (Sigma).
(§2) Stereological methods were applied by a blinded investigator using unbiased stereology analysis (Stereologer, Systems Planning and Analysis, Chester, Md.) as described in (20,36).

[2] = system: molecular markers of autophagy; assay: Western blot of autophagy markers, lentiviral α-Synuclein mice; details: Nilotinib 10 mg/kg IP daily 3 weeks
Source text: Rabbit polyclonal (1:1000) tubulin (Thermo Scientific) was used.

Aβ1-42 parkin−/− mice = assay: Novel object recognition, Aβ1-42 parkin−/− mice; details: Aβ1-42 parkin−/− mice with or without Nilotinib
Protocol: Mice were placed individually in a 22×32×30 cm testing chamber for a 5 min habituation interval and returned to their home cages. Thirty minutes later mice were placed in the testing chamber for 10 min with two identical objects (acquisition session), then returned to their home cages and […] placed back in the testing chamber in the presence with one of the original objects and one novel object of the same size but of a different color and shape (recognition session). Sessions were video recorded. Time spent exploring the objects were scored by blind observer. The recognition index was calculated as (time exploring one of the objects/time exploring both objects)×100 for acquisition session, and (time exploring new object/time exploring both familiar and novel objects)×100 for the recognition session. Statistical calculations to estimate differences between sessions were performed with a pairwise t-test.
These experiments were repeated in 1 year old Tg-APP mice and age-matched control (C57BL/6).

[3] = system: autophagic vacuoles and lysosomes; assay: Subcellular fractionation and ELISA, lentiviral Tau±Aβ1-42 mice
Protocol: Brain tissues were fractionated to isolate AVs and human specific ELISA was performed to determine Aβ1-42 contents. […] It was also observed that autophagic clearance is parkin-dependent.
Brain tissues were fractionated to isolate AVs and mouse specific ELISA was performed to determine protein contents.
Brain tissues were fractionated to isolate AVs and human specific ELISA was performed to determine protein contents.
0.5 g of Frozen human or animal brains were homogenized at low speed (Cole-Palmer homogenizer, LabGen 7, 115 Vac) in 1×STEN buffer and centrifuged at 1,000 g for 10 minutes to isolate the supernatant from the pellet. The pellet was re-suspended in 1×STEN buffer and centrifuged once to increase the recovery of lysosomes. The pooled supernatants were then centrifuged at 100,000 rpm for 1 hour at 4° C. to extract the pellet containing autophagic vacuoles (AVs) and lysosomes. The pellet was then re-suspended in 10 ml (0.33 g/ml) 50% Metrizamide and 10 ml in cellulose nitrate tubes. A discontinuous Metrizamide gradient was constructed in layers from bottom to top as follows: 6 ml of pellet suspension, 10 ml of 26%; 5 ml of 24%; 5 ml of 20%; and 5 ml of 10% Metrizamide (Marzella et al., 1982). After centrifugation at 10,000 rpm for 1 hour at 4° C., the fraction floating on the 10% layer (Lysosome) and the fractions banding at the 24%/20% (AV 20) and the 20%/10% (AV10) Metrizamide inter-phases were collected by a syringe and examined.
Animal brains were homogenized at low speed (Cole-Palmer homogenizer, LabGen 7, 115 Vac) in 1×STEN buffer and centrifuged at 1,000 g for 10 minutes to isolate the supernatant from the pellet. The pellet was re-suspended in 1×STEN buffer and centrifuged once to increase the recovery of lysosomes. The pooled supernatants were then centrifuged at 100.000 rpm for 1 hour at […] to extract the pellet containing autophagic vacuoles (AVs) and lysosomes. The pellet was then re-suspended in 10 ml (0.33 g/ml) 50% Metrizamide and 10 ml in cellulose nitrate tubes. […]

[4] = system: Aβ1-42 plaques and intracellular Aβ1-42; assay: Plaque and intracellular Aβ1-42 staining, lentiviral Aβ1-42 parkin−/− mice
Protocol: as §1, §2

transgenic A53T mice = assay: Rotarod, A53T mice
Source text: Mice were placed on an accelerating rotarod (Columbus Instruments) equipped with individual timers for each mouse. […] All values were converted to % control.

[5] = system: dopamine and homovanillic acid (HVA) levels; assay: Dopamine and HVA ELISA, lentiviral α-Synuclein mice; details: 10 mg/kg Nilotinib or 5 mg/Kg Bosutinib
Protocol: Total brain or mesencephalon were collected and fresh 50 μl (1 μg/μl) brain lysates (in STEN buffer) were detected with 50 μl primary antibody (1 h) and 100 μl anti-rabbit secondary antibody (30 min) at RT according to manufacturer's protocols (Abnova, Cat # BOLD01090J00011) for DA and (Eagle Biosciences, Cat # HVA34-K01) for HVA.

## Cc1cn(-c2cc(NC(=O)c3ccc(C)c(Nc4nccc(-c5cccnc5)n4)c3)cc(C(F)(F)F)c2)cn1 [Nilotinib]
[1]; Aβ1-42 wild type mice + Nilotinib (DMSO around 48 μm)
  plaque size: 5 μm
[1]; Aβ1-42 wild type mice, Nilotinib daily for 3 weeks
  plaque formation: eliminates plaque formation
[1]; Aβ1-42 wild type mice, Nilotinib treated
  Aβ1-42 positive cells (stereological counting): 5200 cells
[1]; lentiviral Aβ1-42 injected mice, Nilotinib
  intracellular Aβ1-42 accumulation (cortex): eliminated Aβ1-42 accumulation
[2]
  decrease in LC3-II compared to LC3-I: 39%
  decrease in LC3-II compared to MAP-2: 41%
  decrease in P62: 69%
  increase in Atg-5 compared to actin: 43%
  increase in Atg-12 compared to actin: 58%
  increase in beclin-1 compared to actin: 62%
Aβ1-42 parkin−/− mice
  novel object recognition learning: did not learn
[3]; lentiviral Tau±Aβ1-42 mice, 10 mg/kg Nilotinib or 5 mg/Kg Bosutinib daily 3 weeks
  autophagic clearance of p-Tau ser 396, human specific ELISA: enhances autophagic clearance
[3]; lentiviral Tau±Aβ1-42 mice, IP 10 mg/kg Nilotinib daily 3 weeks
  autophagic clearance of Aβ1-42 (deposition in AV-20 and lysosome): enhances autophagic clearance
[3]; lentiviral human Tau±Aβ1-42 mice, IP 10 mg/kg Nilotinib daily 3 weeks
  autophagic clearance of p-Tau ser 396, mouse specific ELISA: enhances autophagic clearance
[4]; Aβ1-42 parkin−/− mice + Nilotinib (DMSO 85 μm)
  plaque size: 79 μm
[4]; Aβ1-42 parkin−/− mice + Nilotinib (DMSO N=14566)
  Aβ1-42 positive cells (stereological counting): 13250
[4]; Aβ1-42 parkin−/− mice, Nilotinib
  plaque load: did not reduce plaque load
Transgenic A53T mice; 6-8 months old A53T mice, Nilotinib
  increase in rotarod motor performance above control levels: 45%
Transgenic A53T mice; A53T mice, 10 mg/kg Nilotinib or 5 mg/Kg Bosutinib once daily for 3 weeks
  motor performance (rotarod): increased
[5]
  α-synuclein induced loss of dopamine and HVA levels (ELISA): reversed these effects

— patent US10709704B2, “Treating neural disease with tyrosine kinase inhibitors” (GEORGETOWN UNIVERSITY, priority 2012, dated 2020)
